# Reference: patent US9216964B2, “Hedgehog pathway modulators” (Novartis AG, priority 2008, dated 2015)
# System: hedgehog signaling pathway
# Assay: Gli-Luc Reporter Assay for Hh Pathway Inhibition (TMHh-12 cells, pTA-8×Gli-Luc reporter)
# Type: cell-based, Mouse
# Conditions: Mus musculus, TMHh12, Ag1.5 1 nM; read-out: Hedgehog Inhibition IC50 (nM) (Ag1.5 1 nM)
# Outline: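 Mouse TM3 cells stably carrying an 8×Gli-firefly luciferase reporter, in 2% FBS medium; pathway activated with recombinant mouse Shh (8 μg/mL) or Smo agonist, compounds added at varying concentrations for 48 h. Luminescence read; IC50 at 50% signal reduction. Toxicity checked in TM3 cells (CellTiter-Glo) or constitutive-luciferase TM3-Luc cells.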
row,IC50 [nM],SMILES
1,564,Cc1ccc(Nc2cccc3c2CCN(S(C)(=O)=O)C3)cc1-c1ccc(CO)cc1 [Compound 156]
2,0.1,Cc1ccc(Nc2cccc3c2CCN(S(C)(=O)=O)C3)cc1C(=O)Nc1ccccc1 [Compound 159]
3,1,Cc1ccc(Nc2cccc3c2CCN(S(C)(=O)=O)C3)cc1C(=O)Nc1ccc(C#N)cc1 [Compound 160]
4,2.1,Cc1ccc(Nc2cccc3c2CCN(S(C)(=O)=O)C3)cc1C(=O)Nc1ccccn1 [Compound 162]
5,47,Cc1cc(C#N)ccc1-c1cc(Nc2cccc3c2CCN(S(C)(=O)=O)C3)ccc1C [Compound 163]
6,0.7,Cc1ccc(Nc2cccc3c2CCN(S(C)(=O)=O)C3)cc1C(=O)Nc1ccc(C(F)(F)F)cc1 [Compound 184]
7,0.4,Cc1ccc(Nc2cccc3c2CCN(S(C)(=O)=O)C3)cc1C(=O)Nc1ccc(F)cc1 [Compound 185]
8,1.1,Cc1ccc(Nc2cccc3c2CCN(S(C)(=O)=O)C3)cc1C(=O)Nc1ccc(OC(F)(F)F)cc1 [Compound 187]
9,15,Cc1cnc(-c2cc(Nc3cccc4c3CCN(S(C)(=O)=O)C4)ccc2C)nc1 [Compound 216]

# Same assay, conditions: Mus musculus, TMHh12, enzymatic and cellular assays for the inhibition of hedgehog signaling pathways; read-out: IC50 Ranges
row,IC50 [nM],SMILES
1,1000 to 10000,Cc1ccc(Nc2cccc3c2CCN(S(C)(=O)=O)C3)cc1-c1ccc(C(=O)NCC(O)CO)cc1 (stereo not drawn) [Compound 146]
2,1000 to 10000,Cc1ccc(Nc2cccc3c2CCN(S(C)(=O)=O)C3)cc1-c1ccc(C(=O)N(CCO)CCO)cc1 [Compound 147]
3,100 to 1000,Cc1ccc(Nc2cccc3c2CCN(S(C)(=O)=O)C3)cc1-c1ccc(C(=O)NCC(C)O)cc1 (stereo not drawn) [Compound 148]
4,100 to 1000,COc1ccc(Nc2cccc3c2CCN(S(C)(=O)=O)C3)cc1-c1ccc(C#N)cc1 [Compound 149]
5,1000 to 10000,CS(=O)(=O)N1CCc2c(cccc2Nc2ccc(OC(F)(F)F)c(-c3ccc(C#N)cc3)c2)C1 [Compound 150]
6,10 to 100,Cc1ccc(Nc2cccc3c2CCN(S(C)(=O)=O)C3)cc1-c1cc2ccccc2[nH]1 [Compound 151]
7,10 to 100,Cc1ccc(Nc2cccc3c2CCN(S(C)(=O)=O)C3)cc1-c1cc2ccccc2n1C [Compound 152]
8,1 to 10,Cc1ccc(Nc2cccc3c2CCN(S(C)(=O)=O)C3)cc1-c1ccc(C#N)cn1 [Compound 154]
9,100 to 1000,CS(=O)(=O)N1CCc2c(cccc2Nc2ccc(C#N)c(-c3ccc(C#N)cc3)c2)C1 [Compound 155]
10,100 to 1000,Cc1ccc(Nc2cccc3c2CCN(S(C)(=O)=O)C3)cc1-c1ccc(CO)cc1 [Compound 156]
11,1000 to 10000,Cc1ccc(Nc2cccc3c2CCN(S(C)(=O)=O)C3)cc1-c1ccc(CNCC(O)CO)cc1 (stereo not drawn) [Compound 157]
12,100 to 1000,Cc1ccc(Nc2cccc3c2CCN(S(C)(=O)=O)C3)cc1-c1ccc(CNCCO)cc1 [Compound 158]
13,0.001 to 1,Cc1ccc(Nc2cccc3c2CCN(S(C)(=O)=O)C3)cc1C(=O)Nc1ccccc1 [Compound 159]
14,0.001 to 1,Cc1ccc(Nc2cccc3c2CCN(S(C)(=O)=O)C3)cc1C(=O)Nc1ccc(C#N)cc1 [Compound 160]
15,0.001 to 1,COc1ccc(NC(=O)c2cc(Nc3cccc4c3CCN(S(C)(=O)=O)C4)ccc2C)cc1 [Compound 161]
16,1 to 10,Cc1ccc(Nc2cccc3c2CCN(S(C)(=O)=O)C3)cc1C(=O)Nc1ccccn1 [Compound 162]
17,10 to 100,Cc1cc(C#N)ccc1-c1cc(Nc2cccc3c2CCN(S(C)(=O)=O)C3)ccc1C [Compound 163]
18,0.001 to 1,Cc1ccc(Nc2cccc3c2CCN(S(C)(=O)=O)C3)cc1-c1ccc(F)cn1 [Compound 164]
19,100 to 1000,COc1cccc(-c2cc(Nc3cccc4c3CCN(S(C)(=O)=O)C4)ccc2C)n1 [Compound 165]
20,10 to 100,Cc1ccc(Nc2cccc3c2CCN(S(C)(=O)=O)C3)cc1OCc1ccc(C#N)cc1 [Compound 166]
21,100 to 1000,Cc1cc(C#N)ccc1-c1cccc(Nc2cccc3c2CCN(S(C)(=O)=O)C3)c1 [Compound 168]
22,0.001 to 1,Cc1ccc(-c2cc(Nc3cccc4c3CCN(S(C)(=O)=O)C4)ccc2C)nc1 [Compound 169]
23,1 to 10,Cc1ccc(-c2cc(Nc3cccc4c3CCN(S(C)(=O)=O)C4)ccc2C)nn1 [Compound 170]
24,100 to 1000,CS(=O)(=O)N1CCc2c(cccc2Nc2cc(-c3ccc(C#N)cc3)c(Cl)cn2)C1 [Compound 171]
25,> 10000,CS(=O)(=O)N1CCc2c(cccc2Nc2ccc(C(=O)O)c(-c3ccc(C#N)cc3)c2)C1 [Compound 172]

row,IC50 [nM],SMILES
1,0.001 to 1,Cc1ccc(Nc2cccc3c2CCN(S(C)(=O)=O)C3)cc1-c1ccc(Cl)cn1 [Compound 173]
2,0.001 to 1,COc1ccc(-c2cc(Nc3cccc4c3CCN(S(C)(=O)=O)C4)ccc2C)nc1 [Compound 174]
3,10 to 100,CS(=O)(=O)N1CCc2c(cccc2Nc2cnc(Cl)c(-c3ccc(C#N)cc3)c2)C1 [Compound 175]
4,10 to 100,COc1cnc(-c2cc(Nc3cccc4c3CCN(S(C)(=O)=O)C4)ccc2C)nc1 [Compound 176]
5,100 to 1000,CS(=O)(=O)N1CCc2c(cccc2Nc2ccc(CO)c(-c3ccc(C#N)cc3)c2)C1 [Compound 178]
6,100 to 1000,CN(C)Cc1ccc(Nc2cccc3c2CCN(S(C)(=O)=O)C3)cc1-c1ccc(C#N)cc1 [Compound 179]
7,100 to 1000,CNC(=O)c1ccc(Nc2cccc3c2CCN(S(C)(=O)=O)C3)cc1-c1ccc(C#N)cc1 [Compound 180]
8,1 to 10,Cc1ccc(Nc2cccc3c2CCN(CC(C)(C)O)C3)cc1-c1ccc(F)cn1 [Compound 181]
9,1 to 10,Cc1ccc(Nc2cccc3c2CCN(CC(C)(C)F)C3)cc1-c1ccc(F)cn1 [Compound 182]
10,1 to 10,COc1ccc(-c2cc(Nc3cccc4c3CCN(S(C)(=O)=O)C4)ccc2C)nn1 [Compound 183]
11,0.001 to 1,Cc1ccc(Nc2cccc3c2CCN(S(C)(=O)=O)C3)cc1C(=O)Nc1ccc(C(F)(F)F)cc1 [Compound 184]
12,0.001 to 1,Cc1ccc(Nc2cccc3c2CCN(S(C)(=O)=O)C3)cc1C(=O)Nc1ccc(F)cc1 [Compound 185]
13,0.001 to 1,Cc1ccc(NC(=O)c2cc(Nc3cccc4c3CCN(S(C)(=O)=O)C4)ccc2C)cc1 [Compound 186]
14,1 to 10,Cc1ccc(Nc2cccc3c2CCN(S(C)(=O)=O)C3)cc1C(=O)Nc1ccc(OC(F)(F)F)cc1 [Compound 187]
15,0.001 to 1,Cc1ccc(Nc2cccc3c2CCN(S(C)(=O)=O)C3)cc1-c1ccccn1 [Compound 189]
16,1 to 10,COc1cnc(-c2cc(Nc3cccc4c3CCN(S(C)(=O)=O)C4)ccc2C)cn1 [Compound 190]
17,1 to 10,Cc1cccc(-c2cc(Nc3cccc4c3CCN(S(C)(=O)=O)C4)ccc2C)n1 [Compound 191]
18,0.001 to 1,Cc1ccnc(-c2cc(Nc3cccc4c3CCN(S(C)(=O)=O)C4)ccc2C)c1 [Compound 192]
19,100 to 1000,Cc1ccc(Nc2cccc3c2CCN(S(C)(=O)=O)C3)cc1C(=O)N(C)c1ccccc1 [Compound 193]
20,100 to 1000,Cc1ccc(Nc2cccc3c2CCN(S(C)(=O)=O)C3)cc1C(=O)N(CCO)c1ccccc1 [Compound 194]
21,1 to 10,Cc1ccc(Nc2cccc3c2CCN(C[C@H](O)CO)C3)cc1-c1ccc(F)cn1 [Compound 195]
22,1 to 10,Cc1ccc(Nc2cccc3c2CCN(CCC(F)(F)F)C3)cc1-c1ccc(C#N)cn1 [Compound 196]
23,1000 to 10000,Cc1c(CN(C)C)cc(Nc2cccc3c2CCN(S(C)(=O)=O)C3)cc1-c1ccc(F)cn1 [Compound 197]
24,0.001 to 1,Cc1ccc(Nc2cccc3c2CCN(CC(C)(C)F)C3)cc1-c1ccc(C#N)cn1 [Compound 198]
25,1 to 10,Cc1ccc(Nc2cccc3c2CCN(CC(C)(C)O)C3)cc1-c1ccc(C#N)cn1 [Compound 199]

row,IC50 [nM],SMILES
1,0.001 to 1,Cc1ccc(-c2cc(Nc3cccc4c3CCN(CC(C)(C)F)C4)ccc2C)nc1 [Compound 200]
2,0.001 to 1,Cc1ccc(-c2cc(Nc3cccc4c3CCN(CC(C)(C)O)C4)ccc2C)nc1 [Compound 201]
3,10 to 100,Cc1ncc(Nc2cccc3c2CCN(S(C)(=O)=O)C3)cc1-c1ccc(F)cn1 [Compound 202]
4,1 to 10,CS(=O)(=O)N1CCc2c(cccc2Nc2cc(C(=O)Nc3ccccc3)c(Cl)cn2)C1 [Compound 203]
5,10 to 100,Cc1ccc(Nc2cccc3c2CCN(S(C)(=O)=O)C3)cc1-c1ccc(C#N)nn1 [Compound 207]
6,100 to 1000,Cc1ccc(Nc2cccc3c2CCN(S(C)(=O)=O)C3)cc1-c1cnc(C#N)cn1 [Compound 208]
7,100 to 1000,Cc1ccc(-c2cc(Nc3cccc4c3CCN(C[C@H](O)CO)C4)ccc2C)nn1 [Compound 209]
8,1 to 10,Cc1ccc(-c2cc(Nc3cccc4c3CCN(C[C@H](O)CO)C4)ccc2C)nc1 [Compound 210]
9,0.001 to 1,Cc1ccc(Nc2cccc3c2CCN(CC(F)(F)CO)C3)cc1-c1ccc(C#N)cn1 [Compound 211]
10,0.001 to 1,Cc1ccc(-c2cc(Nc3cccc4c3CCN(CC(F)(F)CO)C4)ccc2C)nc1 [Compound 212]
11,1 to 10,Cc1ccc(-c2cc(Nc3cccc4c3CCN(CC(C)(C)C)C4)ccc2C)nc1 [Compound 213]
12,100 to 1000,Cc1ccc(Nc2cccc3c2CCN(S(C)(=O)=O)C3)cc1Oc1ccccn1 [Compound 214]
13,10 to 100,Cc1ccc(Nc2cccc3c2CCN(S(C)(=O)=O)C3)cc1OCc1ccccn1 [Compound 215]
14,10 to 100,Cc1cnc(-c2cc(Nc3cccc4c3CCN(S(C)(=O)=O)C4)ccc2C)nc1 [Compound 216]
15,1 to 10,Cc1ccc(Nc2cccc3c2CCN(S(C)(=O)=O)C3)cc1-c1cc(F)ccn1 [Compound 217]
16,10 to 100,Cc1ccc(Nc2cccc3c2CCN(S(C)(=O)=O)C3)cc1-c1cccc(F)n1 [Compound 218]
17,10 to 100,Cc1ccnc(-c2cc(Nc3cccc4c3CCN(S(C)(=O)=O)C4)ccc2C)n1 [Compound 219]
18,1 to 10,Cc1ccc(Nc2cccc3c2CCN(S(C)(=O)=O)C3)cc1-c1ncc(F)cn1 [Compound 220]
19,1 to 10,Cc1ccc(Nc2cccc3c2CCN(CC(C)(C)F)C3)cc1C(=O)Nc1ccccc1 [Compound 221]
20,1 to 10,Cc1ccc(Nc2cccc3c2CCN(CC(C)(C)O)C3)cc1C(=O)Nc1ccccc1 [Compound 222]
21,0.001 to 1,Cc1ccc(-c2cc(Nc3cccc4c3CCN(CCS(C)(=O)=O)C4)ccc2C)nc1 [Compound 223]
22,0.001 to 1,Cc1ccc(-c2cc(Nc3cccc4c3CCN(CC(C)(F)F)C4)ccc2C)nc1 [Compound 224]
23,1 to 10,Cc1ncc(Nc2cccc3c2CCN(S(C)(=O)=O)C3)cc1C(=O)Nc1ccccc1 [Compound 225]

# Same assay, conditions: enzymatic and cellular assays for the inhibition of hedgehog signaling pathways; read-out: IC50 Ranges
row,IC50 [nM],SMILES
1,0.001 to 1,Cc1ccc(Nc2cccc3c2CCN(S(C)(=O)=O)C3)cc1-c1ccc(C(F)(F)F)cn1 [Compound 153]
2,1 to 10,Cc1ccc(Nc2cccc3c2CCN(S(C)(=O)=O)C3)cc1-c1ccc(C(F)(F)F)cn1 [Compound 167]
